Like-named read-outs stand apart in the source and are kept apart here.
Tests used:
h5-HT2A receptor [1] = target: T1, h5-HT2A receptor (Homo sapiens, UniProt P28223); settings: read-out: h5-HT2A Receptor binding Ki ± SD; cited from earlier work
T1 construct: expressed in transfected cells; host or cells: HEK 293 cells (membrane preparations)

h5-HT2C receptor = target: T2, h5-HT2C receptor (Homo sapiens, UniProt P28335); assay: biochemical; assay type: binding; settings: [3H]mesulergine; mean ± SD; read-out: h5-HT2C Receptor binding Ki ± SD
T2 construct: expressed in transfected cells; host or cells: HEK 293 cells (membrane preparations)
T2 sequence (P28335 33-458): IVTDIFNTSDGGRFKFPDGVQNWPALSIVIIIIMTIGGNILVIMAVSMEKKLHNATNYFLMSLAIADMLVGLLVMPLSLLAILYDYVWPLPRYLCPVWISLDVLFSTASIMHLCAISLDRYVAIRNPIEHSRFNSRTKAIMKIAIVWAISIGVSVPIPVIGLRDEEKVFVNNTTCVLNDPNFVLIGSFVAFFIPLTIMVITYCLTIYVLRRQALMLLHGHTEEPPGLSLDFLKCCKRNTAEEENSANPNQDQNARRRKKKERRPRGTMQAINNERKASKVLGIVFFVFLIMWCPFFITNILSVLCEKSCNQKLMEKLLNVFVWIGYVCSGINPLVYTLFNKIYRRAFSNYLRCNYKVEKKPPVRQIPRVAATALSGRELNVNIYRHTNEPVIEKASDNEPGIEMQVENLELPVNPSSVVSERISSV

mouse TAAR1 = target: T3, mouse TAAR1 (Mus musculus, UniProt Q923Y8); assay: Radioligand binding at mouse TAAR1 ([3H]RO5166017)
T3 construct: expressed in transfected cells; host or cells: HEK 293 cells (membrane preparations)
T3 sequence (Q923Y8 whole entry): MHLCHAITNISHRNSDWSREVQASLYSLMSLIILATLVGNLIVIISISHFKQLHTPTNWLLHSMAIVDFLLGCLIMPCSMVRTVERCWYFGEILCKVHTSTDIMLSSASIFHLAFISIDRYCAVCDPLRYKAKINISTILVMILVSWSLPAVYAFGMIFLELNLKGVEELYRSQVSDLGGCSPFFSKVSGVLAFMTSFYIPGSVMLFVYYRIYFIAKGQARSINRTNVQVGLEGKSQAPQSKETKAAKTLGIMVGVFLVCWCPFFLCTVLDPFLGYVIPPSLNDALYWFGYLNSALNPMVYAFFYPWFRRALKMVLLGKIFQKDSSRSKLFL

[2] = target: T4, dopaminergic hD2 receptor (Homo sapiens, UniProt P14416); assay: Radioligand binding at dopaminergic hD2 receptor ([3H]spiperone)
T4 construct: expressed in transfected cells; host or cells: HEK 293 cells (membrane preparations)
T4 sequence (P14416 whole entry): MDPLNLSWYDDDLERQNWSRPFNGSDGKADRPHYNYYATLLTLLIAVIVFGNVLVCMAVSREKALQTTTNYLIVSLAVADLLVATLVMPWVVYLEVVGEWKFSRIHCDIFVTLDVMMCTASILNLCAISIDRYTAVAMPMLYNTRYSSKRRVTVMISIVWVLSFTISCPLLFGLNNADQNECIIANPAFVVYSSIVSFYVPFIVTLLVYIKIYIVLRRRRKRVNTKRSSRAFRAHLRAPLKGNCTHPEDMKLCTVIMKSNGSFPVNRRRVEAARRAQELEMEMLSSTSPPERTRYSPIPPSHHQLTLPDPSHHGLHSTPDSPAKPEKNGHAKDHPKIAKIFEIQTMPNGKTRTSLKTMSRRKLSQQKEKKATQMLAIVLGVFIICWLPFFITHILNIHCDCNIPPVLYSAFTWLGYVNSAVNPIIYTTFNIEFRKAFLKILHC

hNET = target: T5, hNET (Homo sapiens, UniProt P23975); assay: Radioligand binding at hNET (N-methyl-[3H]nisoxetine)
T5 construct: expressed in transfected cells; host or cells: HEK 293 cells (membrane preparations)
T5 sequence (P23975 whole entry): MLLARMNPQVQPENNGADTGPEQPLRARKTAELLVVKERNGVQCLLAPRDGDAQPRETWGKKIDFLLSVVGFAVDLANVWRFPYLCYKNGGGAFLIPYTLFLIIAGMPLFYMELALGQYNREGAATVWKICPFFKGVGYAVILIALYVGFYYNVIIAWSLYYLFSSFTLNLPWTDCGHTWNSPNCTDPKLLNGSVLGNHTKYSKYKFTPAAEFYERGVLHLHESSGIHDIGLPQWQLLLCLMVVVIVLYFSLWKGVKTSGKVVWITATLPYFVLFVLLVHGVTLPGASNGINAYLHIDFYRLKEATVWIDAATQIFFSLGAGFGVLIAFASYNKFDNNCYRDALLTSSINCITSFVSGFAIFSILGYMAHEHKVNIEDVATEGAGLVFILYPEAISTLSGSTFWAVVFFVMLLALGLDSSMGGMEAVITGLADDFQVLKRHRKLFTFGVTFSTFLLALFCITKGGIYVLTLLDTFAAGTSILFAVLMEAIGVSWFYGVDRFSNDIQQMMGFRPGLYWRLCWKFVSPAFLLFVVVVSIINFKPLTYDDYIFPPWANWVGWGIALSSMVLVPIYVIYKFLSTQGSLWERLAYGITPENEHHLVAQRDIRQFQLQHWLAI

human 5-HT2B receptor = human 5-HT2B receptor (Homo sapiens, UniProt P41595); settings: for EC50: h5-HT2B Activation potency EC50 ± SD, HEK 293 cells, calcium FLIPR, mean ± SD
human 5-HT2B receptor, sequence (P41595 whole entry): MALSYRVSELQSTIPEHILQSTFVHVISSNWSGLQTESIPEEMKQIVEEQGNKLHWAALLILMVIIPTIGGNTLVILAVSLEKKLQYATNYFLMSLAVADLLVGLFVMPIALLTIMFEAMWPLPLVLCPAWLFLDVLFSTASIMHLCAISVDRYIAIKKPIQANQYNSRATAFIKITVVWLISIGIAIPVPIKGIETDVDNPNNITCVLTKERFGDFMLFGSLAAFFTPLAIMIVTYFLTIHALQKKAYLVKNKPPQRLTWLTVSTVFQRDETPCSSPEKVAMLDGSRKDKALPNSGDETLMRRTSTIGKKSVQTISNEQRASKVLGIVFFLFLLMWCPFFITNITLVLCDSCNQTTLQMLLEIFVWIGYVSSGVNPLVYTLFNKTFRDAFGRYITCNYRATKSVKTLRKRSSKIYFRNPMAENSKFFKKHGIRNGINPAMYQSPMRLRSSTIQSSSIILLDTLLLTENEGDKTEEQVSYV

hα1A adrenergic receptor = target: T6, hα1A adrenergic receptor (Homo sapiens, UniProt P35348); assay: Radioligand binding at hα1A adrenergic receptor ([3H]prazosin); settings: mean ± SD
T6 construct: expressed in transfected cells; host or cells: Chinese hamster ovary cells (membrane preparations)
T6 sequence (P35348 1-466): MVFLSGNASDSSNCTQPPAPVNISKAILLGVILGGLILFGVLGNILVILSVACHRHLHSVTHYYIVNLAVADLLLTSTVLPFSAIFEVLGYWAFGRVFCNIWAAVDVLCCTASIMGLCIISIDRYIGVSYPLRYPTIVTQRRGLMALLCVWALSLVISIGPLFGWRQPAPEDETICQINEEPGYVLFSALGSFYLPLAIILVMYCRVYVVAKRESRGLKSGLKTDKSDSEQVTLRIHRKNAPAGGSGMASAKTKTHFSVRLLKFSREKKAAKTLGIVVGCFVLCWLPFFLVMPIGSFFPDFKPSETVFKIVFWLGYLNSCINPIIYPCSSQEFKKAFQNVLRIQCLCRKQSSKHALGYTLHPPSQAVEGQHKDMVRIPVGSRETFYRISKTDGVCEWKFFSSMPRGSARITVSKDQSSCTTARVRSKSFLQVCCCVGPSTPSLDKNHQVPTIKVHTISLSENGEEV

rat TAAR1 = target: T7, rat TAAR1 (Rattus norvegicus, UniProt Q923Y9); assay: Radioligand binding at rat TAAR1 ([3H]RO5166017)
T7 construct: expressed in transfected cells; host or cells: HEK 293 cells (membrane preparations)
T7 sequence (Q923Y9 whole entry): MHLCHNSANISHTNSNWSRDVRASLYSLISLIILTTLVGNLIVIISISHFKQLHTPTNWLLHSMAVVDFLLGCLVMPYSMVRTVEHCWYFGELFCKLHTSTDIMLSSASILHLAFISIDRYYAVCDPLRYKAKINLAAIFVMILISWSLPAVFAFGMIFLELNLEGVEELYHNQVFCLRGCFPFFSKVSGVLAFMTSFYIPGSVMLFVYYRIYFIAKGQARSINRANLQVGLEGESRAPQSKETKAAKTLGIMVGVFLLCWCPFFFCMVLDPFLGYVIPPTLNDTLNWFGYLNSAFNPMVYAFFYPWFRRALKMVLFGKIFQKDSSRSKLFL

h5-HT2A receptor [3] = target: T1, h5-HT2A receptor; assay: Radioligand binding at h5-HT2A receptor ([3H]ketanserin); settings: for Ki: h5-HT2A Receptor binding Ki ± SD, [3H]ketanserin, mean ± SD
hDAT = target: T8, hDAT (Homo sapiens, UniProt Q01959); assay: Radioligand binding at hDAT ([3H]WIN35,428)
T8 construct: expressed in transfected cells; host or cells: HEK 293 cells (membrane preparations)
T8 sequence (Q01959 whole entry): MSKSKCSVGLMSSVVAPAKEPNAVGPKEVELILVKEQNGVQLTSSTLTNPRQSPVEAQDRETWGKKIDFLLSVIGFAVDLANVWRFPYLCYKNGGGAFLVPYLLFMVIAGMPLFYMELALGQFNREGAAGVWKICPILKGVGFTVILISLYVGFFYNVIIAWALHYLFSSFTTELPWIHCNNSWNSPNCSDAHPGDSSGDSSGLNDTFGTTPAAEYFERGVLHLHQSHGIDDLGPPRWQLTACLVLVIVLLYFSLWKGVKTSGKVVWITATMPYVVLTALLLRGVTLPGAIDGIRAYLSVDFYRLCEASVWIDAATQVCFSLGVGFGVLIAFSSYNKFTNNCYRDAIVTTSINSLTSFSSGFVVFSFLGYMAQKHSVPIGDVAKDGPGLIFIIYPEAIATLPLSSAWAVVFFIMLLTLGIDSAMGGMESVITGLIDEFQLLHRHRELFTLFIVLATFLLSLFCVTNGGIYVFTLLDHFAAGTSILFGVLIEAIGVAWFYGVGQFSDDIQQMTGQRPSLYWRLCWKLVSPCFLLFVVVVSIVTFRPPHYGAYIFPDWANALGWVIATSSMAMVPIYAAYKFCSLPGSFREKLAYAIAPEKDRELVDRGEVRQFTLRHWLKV

human 5-HT2A receptor [4] = target: T9, human 5-HT2A receptor (Homo sapiens, UniProt P28223); parameters: expressed in transfected cells; host or cells: NIH-3T3 cells (mouse embryonic fibroblasts); settings: read-out: h5-HT2A Activation potency EC50 ± SD; mescaline; ref Rickli et al. (2016); cited from earlier work
T9 sequence (P28223 whole entry): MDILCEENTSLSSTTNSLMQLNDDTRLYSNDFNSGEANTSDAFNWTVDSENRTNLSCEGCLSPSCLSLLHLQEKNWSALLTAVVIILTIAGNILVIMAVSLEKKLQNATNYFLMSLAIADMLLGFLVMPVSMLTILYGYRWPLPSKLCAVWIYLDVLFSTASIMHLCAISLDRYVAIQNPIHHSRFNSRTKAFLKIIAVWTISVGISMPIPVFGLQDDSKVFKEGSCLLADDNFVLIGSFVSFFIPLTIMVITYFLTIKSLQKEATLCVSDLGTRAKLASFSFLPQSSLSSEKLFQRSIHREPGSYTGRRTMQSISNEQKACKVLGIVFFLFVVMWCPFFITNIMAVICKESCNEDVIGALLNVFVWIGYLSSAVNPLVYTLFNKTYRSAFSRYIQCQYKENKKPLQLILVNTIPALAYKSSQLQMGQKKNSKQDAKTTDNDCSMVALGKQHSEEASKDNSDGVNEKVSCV

h5-HT1A receptor = target: T10, h5-HT1A receptor (Homo sapiens, UniProt P08908); assay: Radioligand binding at h5-HT1A receptor ([3H]8-OH-DPAT)
T10 construct: expressed in transfected cells; host or cells: HEK 293 cells (membrane preparations)
T10 sequence (P08908 1-422): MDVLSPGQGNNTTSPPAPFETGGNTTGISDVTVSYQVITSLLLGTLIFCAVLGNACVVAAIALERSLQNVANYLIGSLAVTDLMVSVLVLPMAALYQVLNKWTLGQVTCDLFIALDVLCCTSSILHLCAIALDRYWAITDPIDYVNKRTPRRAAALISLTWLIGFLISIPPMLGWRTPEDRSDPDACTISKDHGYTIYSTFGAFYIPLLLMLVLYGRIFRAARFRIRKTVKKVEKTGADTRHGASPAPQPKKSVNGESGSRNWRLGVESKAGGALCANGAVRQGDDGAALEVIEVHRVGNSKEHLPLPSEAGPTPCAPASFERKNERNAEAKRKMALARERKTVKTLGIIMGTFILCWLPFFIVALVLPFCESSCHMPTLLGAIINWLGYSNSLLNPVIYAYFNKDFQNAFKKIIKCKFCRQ

hSERT = target: T11, hSERT (Homo sapiens, UniProt P31645); assay: Radioligand binding at hSERT ([3H]citalopram)
T11 construct: expressed in transfected cells; host or cells: HEK 293 cells (membrane preparations)
T11 sequence (P31645 whole entry): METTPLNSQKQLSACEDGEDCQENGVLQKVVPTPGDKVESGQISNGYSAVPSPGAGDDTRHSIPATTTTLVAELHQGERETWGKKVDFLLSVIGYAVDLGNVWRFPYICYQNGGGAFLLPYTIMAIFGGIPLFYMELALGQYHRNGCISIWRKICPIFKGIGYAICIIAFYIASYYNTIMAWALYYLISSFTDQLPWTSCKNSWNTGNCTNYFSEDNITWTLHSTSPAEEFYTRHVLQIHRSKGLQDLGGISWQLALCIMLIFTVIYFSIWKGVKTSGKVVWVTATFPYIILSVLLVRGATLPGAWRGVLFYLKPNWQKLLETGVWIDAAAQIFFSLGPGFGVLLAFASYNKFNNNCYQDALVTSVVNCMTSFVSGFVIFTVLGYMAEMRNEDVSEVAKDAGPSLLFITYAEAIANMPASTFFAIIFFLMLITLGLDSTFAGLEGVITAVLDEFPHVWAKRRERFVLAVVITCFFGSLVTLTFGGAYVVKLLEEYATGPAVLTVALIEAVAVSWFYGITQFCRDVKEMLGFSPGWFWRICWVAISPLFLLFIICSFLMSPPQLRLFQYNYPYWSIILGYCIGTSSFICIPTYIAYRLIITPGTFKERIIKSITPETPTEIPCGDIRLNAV

humans = settings: ref Shulgin and Shulgin 1991, cited from earlier work; for Duration of action: humans; for Duration of action / Human oral dose: Shulgin and Shulgin 1997, Trachsel et al., 2013; for Human oral dose: psychedelic dose in humans
hα2A adrenergic receptor = target: T12, hα2A adrenergic receptor (Homo sapiens, UniProt P08913); assay: Radioligand binding at hα2A adrenergic receptor ([3H]rauwolscine)
T12 construct: expressed in transfected cells; host or cells: Chinese hamster lung cells (membrane preparations)
T12 sequence (P08913 1-465): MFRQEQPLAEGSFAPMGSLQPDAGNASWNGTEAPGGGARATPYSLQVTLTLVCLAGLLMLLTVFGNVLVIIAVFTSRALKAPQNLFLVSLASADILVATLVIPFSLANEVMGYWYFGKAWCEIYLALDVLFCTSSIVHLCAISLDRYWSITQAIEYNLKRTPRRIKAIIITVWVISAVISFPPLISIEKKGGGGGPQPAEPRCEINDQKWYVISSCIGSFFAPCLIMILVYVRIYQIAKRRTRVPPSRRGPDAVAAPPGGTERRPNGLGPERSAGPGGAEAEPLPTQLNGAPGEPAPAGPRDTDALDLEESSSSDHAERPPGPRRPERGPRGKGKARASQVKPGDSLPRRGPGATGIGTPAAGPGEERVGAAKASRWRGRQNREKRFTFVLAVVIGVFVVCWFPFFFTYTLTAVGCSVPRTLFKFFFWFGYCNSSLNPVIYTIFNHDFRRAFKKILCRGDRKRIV

human 5-HT2A receptor [5] = target: T9, human 5-HT2A receptor; settings: for Emax: NIH3T3, read-out: h5-HT2A Activation efficacy max ± SD, relative to 5-HT = 100%
human TAAR1 = target: T13, human TAAR1 (Homo sapiens, UniProt Q96RJ0); assay: Activity at the human TAAR1 (cAMP assay, HEK 293 cells); assay type: cell-based
T13 construct: expressed in transfected cells; host or cells: HEK 293 cells
T13 sequence (Q96RJ0 1-339): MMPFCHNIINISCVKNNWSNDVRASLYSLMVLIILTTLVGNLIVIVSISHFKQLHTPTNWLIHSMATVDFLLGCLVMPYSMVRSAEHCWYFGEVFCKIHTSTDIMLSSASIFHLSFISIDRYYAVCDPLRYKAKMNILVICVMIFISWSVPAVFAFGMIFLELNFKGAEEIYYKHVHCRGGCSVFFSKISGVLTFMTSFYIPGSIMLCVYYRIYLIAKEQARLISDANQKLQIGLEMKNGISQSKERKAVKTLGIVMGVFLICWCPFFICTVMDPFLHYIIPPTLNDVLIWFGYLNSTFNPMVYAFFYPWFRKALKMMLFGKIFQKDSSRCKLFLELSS
Experimental: Once 80–90% confluency was reached, the cells were collected by removing the medium, washing with PBS and then adding 5 ml of trypsin/EDTA solution for 5 min at 37°C. Next, 45 ml of medium was added and the entire mixture was transferred into a falcon tube. The tube was then centrifuged at room temperature for 3 min at 900 revolutions per minute (rpm). Next, the supernatant was removed in order to resuspend the remaining cell pellet in fresh medium to 5 × 10^5 cells/ml. Hundred microliter of the cells was transferred into a 96-well plate ([…]; BIOCOAT 6640, Becton Dickinson, Allschwil, Switzerland) and incubated for 20 h at 37°C.
For the cAMP assay, the aspirated medium was replaced with 50 μl PBS without Ca^2+ and Mg^2+ ions. Using snap inversion, the PBS was extracted and the plate was gently tapped against tissue. Next, 90 μl of Krebs-Ringer Bicarbonate buffer (KRB, Sigma-Aldrich) containing 1 mM IBMX was added and incubated for 60 min at 37°C and 5% CO2/95% air. Each test compound was examined in duplicate in a concentration range between 300 pM and 30 μM. A standard curve with a range of cAMP concentrations (0.13 nM–10 μM) was created for each 96-well plate. Each experiment was accompanied with a reference plate that included RO5256390, β-phenylethylamine and p-tyramine. The cells were exposed to either 30 μl of compound solution, 30 μl of β-phenylethylamine (as maximal response), or a basal control in PBS (containing 1 mM IBMX) for 40 min at 37°C. Next, under forceful shaking using black lids, the cells were exposed to 50 μl of 3× detection mix solution (composed of Ru-cAMP Alexa700 anti-cAMP antibody and lysis buffer) for 120 min at room temperature. Using the NanoScan reader (Innovate Optische Messtechnik, Berlin, Germany; 456 nm excitation wavelength; 630 and 700 nm emission wavelengths), the fluorescence was examined and the FRET signal was determined using the following equation; FRET (700 nm)- P × FRET (630 nm), where P = Ru (700 nm)/Ru (630 nm).

head twitch response = tested on: head twitch response; parameters: method as in Halberstadt et al. (2019); settings: ref Halberstadt et al. (2019); cited from earlier work

T1 sequence (P28223 whole entry): as the sequence (P28223 whole entry) above

COc1cc(CCN)c(OC)cc1Br [2C-B]
Ki (h5-HT2A receptor [1]): 0.0069 ± 0.0018 µM

COc1cc(CCN)cc(OC)c1OC [compound 5, 3,4,5-trimethoxyphenethylamine]
Ki (h5-HT2C receptor): 9.9 µM
Ki (mouse TAAR1): > 4.2 µM
Ki [2]: > 6.3 µM
Ki (hNET): > 9.7 µM
EC50 (human 5-HT2B receptor): > 10 µM
Ki (hα1A adrenergic receptor): > 8.7 µM
Ki (rat TAAR1): 3 µM
Ki (h5-HT2A receptor [3]): 9.4 µM
Ki (hDAT): > 8.5 µM
EC50 (human 5-HT2A receptor [4]): 10 µM
Ki (h5-HT1A receptor): 6.7 µM
Ki (hSERT): > 7.5 µM
Duration of action (humans; listed as mescaline): 8 to 12 h
Human oral dose (humans): 180 to 360 mg
Psychedelic / active dose in humans (humans): 180 to 360 mg
Ki (hα2A adrenergic receptor): 2 µM

COc1cc(CC(C)N)cc(OC)c1OC (stereo not drawn) [compound 6, 3,4,5-trimethoxyamphetamine]
Ki (mouse TAAR1): 1.8 µM
Ki [2]: > 6.3 µM
Ki (hNET): > 9.7 µM
EC50 (human 5-HT2B receptor): > 10 µM
Ki (hα1A adrenergic receptor): > 8.7 µM
Ki (rat TAAR1): 3.2 µM
Ki (h5-HT2A receptor [3]): > 12 µM
EC50 (human 5-HT2A receptor [5]): 1.7 ± 0.4 µM
Emax (human 5-HT2A receptor [5]): 40 to 73%
Ki (hDAT): > 8.5 µM
Ki (h5-HT1A receptor): > 5.6 µM
Ki (hSERT): > 7.5 µM
EC50 (human TAAR1): > 10 µM
Duration of action (humans): 6 to 8 h
Human oral dose (humans; listed as TMA): 100 to 250 mg
Psychedelic / active dose in humans (humans): 100 to 200 mg
Ki (hα2A adrenergic receptor): 4.03 µM

CCOc1c(OC)cc(CC(C)N)cc1OC (stereo not drawn) [compound 21, 3,5-dimethoxy-4-ethoxyamphetamine]
Ki (h5-HT2C receptor): 4.9 µM
Ki (mouse TAAR1): > 4.2 µM
Ki [2]: > 6.3 µM
Ki (hNET): > 9.7 µM
Emax (human 5-HT2B receptor; HEK293, read-out: h5-HT2B Activation efficacy max ± SD, relative to 5-HT = 100%): 18 to 29%
EC50 (human 5-HT2B receptor): 0.095 ± 0.13 µM
Ki (hα1A adrenergic receptor): > 8.7 µM
Ki (rat TAAR1): > 4.7 µM
Selectivity 5-HT2A vs. 5-HT2C (h5-HT2A receptor [3]; binding ratio): 1.3
Ki (h5-HT2A receptor [3]): 3.7 µM
EC50 (human 5-HT2A receptor [5]): 0.16 ± 0.05 µM
Emax (human 5-HT2A receptor [5]): 86 to 102%
Ki (hDAT): > 8.5 µM
Ki (h5-HT1A receptor): > 5.6 µM
Ki (hSERT): > 7.5 µM
Ki (hα2A adrenergic receptor): > 5.1 µM
Head twitch response (head twitch response): induced a head twitch response with almost identical potency

Reference: publication PMC8865417, “Receptor Interaction Profiles of 4-Alkoxy-3,5-Dimethoxy-Phenethylamines (Mescaline Derivatives) and Related Amphetamines” (Frontiers in Pharmacology, 2022)
